Reference: patent US12583852B2, “Heterocycle derivative” (JW PHARMACEUTICAL CORPORATION, priority 2018, dated 2026)

System: human dermal papilla cells
Experiment: Promotion of proliferation of human dermal papilla cells (CellTiter-Glo Luminescent cell viability assay)
Format: cell-based
Settings: human dermal papilla cells (ScienCell, 2499); drug 0 to 30 μM; 48 hours; CellTiter-Glo luminescence; compared to DMSO-treated control group
Procedure: The effect of promoting cell proliferation by the drug was analyzed using human dermal papilla cells (ScienCell, 2499). Human dermal papilla cells cultured using Mesenchymal Stem Cell Medium (ScienCell, 7501) medium were seeded at a density of 3×10^3 cells/well and in a volume of 100 μl in a 96-well plate, incubated overnight at 37° C. and 5% CO2, treated with the drug at different concentrations ranging from 0 to 30 μM in a volume of 100 μL, and incubated at 37° C. and 5% CO2 for 48 hours. CellTiter-Glo Luminescent cell viability assay was performed according to the manufacturer's protocol (Promega, G7573) to detect cell proliferation. Luminescence was measured using an Envision 2102 multilabeled reader (PerkinElmer) equipment, and the cell proliferation rate was analyzed by the activity of the drug-treated group compared to the DMSO-treated group (control group), which is a solvent of the drug.

Compound	Maximum DP cell proliferation (%)
Nc1n[nH]c2nc(Nc3cccc4c3CNC4=O)c(F)cc12 [Compound 53, 4-((3-amino-5-fluoro-1H-pyrazolo[3,4-b]pyridin-6-yl)amino)isoindolin-1-one]	2.4%
Nc1n[nH]c2nc(Nc3cccc4c3CC(=O)N4)c(F)cc12 [Compound 54, 4-((3-amino-5-fluoro-1H-pyrazolo[3,4-b]pyridin-6-yl)amino)indolin-2-one]	4.4%
Nc1n[nH]c2nc(Nc3cc(O)cc4c3CCC4)c(F)cc12 [Compound 56, 7-[(3-amino-5-fluoro-1H-pyrazolo[3,4-b]pyridin-6-yl)amino]indan-5-ol]	7.3%
Nc1n[nH]c2nc(Nc3c(O)ccc4c3CCC4)c(F)cc12 [Compound 57, 4-[(3-amino-5-fluoro-1H-pyrazolo[3,4-b]pyridin-6-yl)amino]indan-5-ol]	3.1%
Cc1c(Nc2cccc3c2CCC3)nc2[nH]nc(N)c2c1C [Compound 58, N6-(2,3-dihydro-1H-inden-4-yl)-4,5-dimethyl-1H-pyrazolo[3,4-b]pyridine-3,6-diamine]	13%
Nc1n[nH]c2nc(Nc3cccc(Cl)c3Cl)c(F)cc12 [Compound 59, N6-(2,3-dichlorophenyl)-5-fluoro-1H-pyrazolo[3,4-b]pyridine-3,6-diamine]	15%
Nc1n[nH]c2nc(Nc3cccc4ncccc34)c(F)cc12 [Compound 60, 5-fluoro-N6-(quinolin-5-yl)-1H-pyrazolo[3,4-b]pyridine-3,6-diamine]	6.1%
Nc1n[nH]c2nc(Nc3cccc(C(F)F)c3F)c(F)cc12 [Compound 61, N6-(3-(difluoromethyl)-2-fluorophenyl)-5-fluoro-1H-pyrazolo[3,4-b]pyridine-3,6-diamine]	11%
Nc1n[nH]c2nc(Nc3cccc(F)c3C(F)(F)F)c(F)cc12 [Compound 62, 5-fluoro-N6-(3-fluoro-2-(trifluoromethyl)phenyl)-1H-pyrazolo[3,4-b]pyridine-3,6-diamine]	6.2%
Nc1n[nH]c2nc(Nc3cccc(C(F)(F)F)c3F)c(F)cc12 [Compound 64, 5-fluoro-N6-(2-fluoro-3-(trifluoromethyl)phenyl)-1H-pyrazolo[3,4-b]pyridine-3,6-diamine]	16%
Nc1n[nH]c2nc(Nc3cccc(C(F)(F)F)c3F)ccc12 [Compound 65, N6-[2-fluoro-3-(trifluoromethyl)phenyl]-1H-pyrazolo[3,4-b]pyridine-3,6-diamine]	10%
Nc1n[nH]c2nc(Nc3cccc(C(F)(F)F)c3F)cnc12 [Compound 66, N6-[2-fluoro-3-(trifluoromethyl)phenyl]-1H-pyrazolo[3,4-b]pyrazine-3,6-diamine]	25%
Cc1c(Cl)cccc1Nc1nc2[nH]nc(N)c2cc1F [Compound 67, N6-(3-chloro-2-methylphenyl)-5-fluoro-1H-pyrazolo[3,4-b]pyridine-3,6-diamine]	13%
Nc1n[nH]c2nc(Nc3cc(C(F)(F)F)ccc3F)c(F)cc12 [Compound 68, 5-fluoro-N6-(2-fluoro-5-(trifluoromethyl)phenyl)-1H-pyrazolo[3,4-b]pyridine-3,6-diamine]	4.5%
Nc1n[nH]c2nc(Nc3ccc(C(F)(F)F)c(F)c3)c(F)cc12 [Compound 72, 5-fluoro-N6-[3-fluoro-4-(trifluoromethyl)phenyl]-1H-pyrazolo[3,4-b]pyridine-3,6-diamine]	6.8%
Nc1n[nH]c2nc(Nc3cc(F)cc(C(F)(F)F)c3F)c(F)cc12 [Compound 73, N6-[2,5-difluoro-3-(trifluoromethyl)phenyl]-5-fluoro-1H-pyrazolo[3,4-b]pyridine-3,6-diamine]	14%
Nc1n[nH]c2nc(Nc3ccc(Cl)c(C(F)F)c3)c(F)cc12 [Compound 75, N6-(4-chloro-3-(difluoromethyl)phenyl)-5-fluoro-1H-pyrazolo[3,4-b]pyridine-3,6-diamine]	3%
Cc1ccc(Cl)c(Nc2nc3[nH]nc(N)c3cc2F)c1F [Compound 76, N6-(6-chloro-2-fluoro-3-methylphenyl)-5-fluoro-1H-pyrazolo[3,4-b]pyridine-3,6-diamine]	4%

Compound	Maximum DP cell proliferation (%)
Nc1n[nH]c2nc(Nc3cccc(C(F)(F)F)c3Cl)c(F)cc12 [Compound 77, N6-(2-chloro-3-(trifluoromethyl)phenyl)-5-fluoro-1H-pyrazolo[3,4-b]pyridine-3,6-diamine]	15%
N#Cc1cccc(Nc2nc3[nH]nc(N)c3cc2F)c1F [Compound 79, 3-[(3-amino-5-fluoro-1H-pyrazolo[3,4-b]pyridin-6-yl)amino]-2-fluoro-benzonitrile]	3.6%
Nc1n[nH]c2nc(Nc3ccc(F)c(C(F)(F)F)c3F)c(F)cc12 [Compound 80, N6-(2,4-difluoro-3-(trifluoromethyl)phenyl)-5-fluoro-1H-pyrazolo[3,4-b]pyridine-3,6-diamine]	6%
Cc1c(F)cccc1Nc1nc2[nH]nc(N)c2cc1F [Compound 82, 5-fluoro-N6-(3-fluoro-2-methylphenyl)-1H-pyrazolo[3,4-b]pyridine-3,6-diamine]	14%
Cc1nc(Nc2cccc3c2CCC3)nc2[nH]nc(N)c12 [Compound 84, N6-(2,3-dihydro-1H-inden-4-yl)-4-methyl-1H-pyrazolo[3,4-d]pyrimidine-3,6-diamine]	7.4%
Nc1n[nH]c2nc(Nc3cccc4c3CCC4(F)F)c(F)cc12 [Compound 85, N6-(1,1-difluoro-2,3-dihydro-1H-inden-4-yl)-5-fluoro-1H-pyrazolo[3,4-b]pyridine-3,6-diamine]	15%
CC(=O)n1nc(N)c2cc(F)c(Nc3cccc4c3CCC4)nc21 [Compound 88, 1-(3-amino-6-((2,3-dihydro-1H-inden-4-yl)amino)-5-fluoro-1H-pyrazolo[3,4-b]pyridin-1-yl)ethan-1-one]	8%
O=C(Nc1n[nH]c2nc(Nc3cccc4c3CCC4)c(F)cc12)C1CCCC1 [Compound 89, N-(6-((2,3-dihydro-1H-inden-4-yl)amino)-5-fluoro-1H-pyrazolo[3,4-b]pyridin-3-yl)cyclopentanecarboxamide]	0.4%
Cn1nc(N)c2cc(F)c(Nc3cccc4c3CCC4)nc21 [Compound 90, N6-(2,3-dihydro-1H-inden-4-yl)-5-fluoro-1-methyl-1H-pyrazolo[3,4-b]pyridine-3,6-diamine]	13%
O=C(Nc1n[nH]c2nc(Nc3cccc4c3CCC4)c(F)cc12)c1ccncc1 [Compound 91, N-(6-((2,3-dihydro-1H-inden-4-yl)amino)-5-fluoro-1H-pyrazolo[3,4-b]pyridin-3-yl)isonicotinamide]	6.4%
CC(=O)Nc1n[nH]c2nc(Nc3cccc4c3CCC4)c(F)cc12 [Compound 92, N-(6-((2,3-dihydro-1H-inden-4-yl)amino)-5-fluoro-1H-pyrazolo[3,4-b]pyridin-3-yl)acetamide]	8%
Nc1nn(Cc2ccccc2)c2nc(Nc3cccc4c3CCC4)c(F)cc12 [Compound 93, 1-benzyl-N6-(2,3-dihydro-1H-inden-4-yl)-5-fluoro-1H-pyrazolo[3,4-b]pyridine-3,6-diamine]	2.8%
CC(=O)Cn1nc(N)c2cc(F)c(Nc3cccc4c3CCC4)nc21 [Compound 94, 1-(3-amino-6-((2,3-dihydro-1H-inden-4-yl)amino)-5-fluoro-1H-pyrazolo[3,4-b]pyridin-1-yl)propan-2-one]	18%
CN(C)CCn1nc(N)c2cc(F)c(Nc3cccc4c3CCC4)nc21 [Compound 96, N6-(2,3-dihydro-1H-inden-4-yl)-1-(2-(dimethylamino)ethyl)-5-fluoro-1H-pyrazolo[3,4-b]pyridine-3,6-diamine]	1.2%
O=C1c2ccccc2C(=O)N1c1nn(C2CCCCO2)c2nc(Nc3cccc4c3CCC4)c(F)cc12 (stereo not drawn) [Compound 97, 2-(6-((2,3-dihydro-1H-inden-4-yl)amino)-5-fluoro-1-(tetrahydro-2H-pyran-2-yl)-1H-pyrazolo[3,4-b]pyridin-3-yl)isoindoline-1,3-dione]	10%
Nc1nn(CC(=O)c2ccccc2)c2nc(Nc3cccc4c3CCC4)c(F)cc12 [Compound 100, 2-(3-amino-6-((2,3-dihydro-1H-inden-4-yl)amino)-5-fluoro-1H-pyrazolo[3,4-b]pyridin-1-yl)-1-phenylethan-1-one]	0.8%
COC(=O)CNc1n[nH]c2nc(Nc3cccc4c3CCC4)c(F)cc12 [Compound 101, methyl (6-((2,3-dihydro-1H-inden-4-yl)amino)-5-fluoro-1H-pyrazolo[3,4-b]pyridin-3-yl)glycinate]	9.7%
CNc1n[nH]c2nc(Nc3cccc4c3CCC4)c(F)cc12 [Compound 102, 5-fluoro-N6-indan-4-yl-N3-methyl-1H-pyrazolo[3,4-b]pyridine-3,6-diamine]	13%
